Experimental data: ChEMBL document CHEMBL3885861, “Open TG-GATES”

Species: Rattus norvegicus
Experiment: Open TG-GATES - Regimen: Single
Format: toxicity, organism-based, Sprague-Dawley
Set-up: regimen Single, gender Male, age 6 weeks
Conditions: in vivo, po, 3 mg/kg, route gavage, dose level Middle; for APTT / Bas / Eos / Fbg / Hb / Ht / Lym / MCH / MCHC / MCV / Mono / Neu / PT / Plat / RBC / Ret / WBC: tissue Blood; for KIDNEY_L / KIDNEY_R / KIDNEY_TOTAL: tissue Kidney; for LIVER: tissue Liver; for A/G / ALP / ALT / AST / BUN / CRE / Ca / Cl / DBIL / GLC / IP / K / LDH / Na / PL / RALB / TBIL / TC / TG / TP / gamma-GTP: tissue Plasma

Question: What does the source list for `CN1C(C(=O)Nc2ccccn2)=C(O)c2sc(Cl)cc2S1(=O)=O` [LORNOXICAM]?
Answer: TERMINAL_BW (3 h): 224.5 g; APTT (3 h): 20.3 s; Bas (3 h): 0.6%; Eos (3 h): 1%; Fbg (3 h): 223.8 mg/dL; Hb (3 h): 13.2 g/dL; Ht (3 h): 40%; Lym (3 h): 75.2%; MCH (3 h): 21 pg; MCHC (3 h): 32.9%; MCV (3 h): 63.8 fL; Mono (3 h): 3.4%; Neu (3 h): 19.6%; PT (3 h): 11.7 s; Plat (3 h): 123.9 x10_4/uL; RBC (3 h): 626.4 x10_4/ul; Ret (3 h): 7.2%; WBC (3 h): 135.4 x10_2/uL; KIDNEY_L (3 h): 1 g; KIDNEY_R (3 h): 1 g; KIDNEY_TOTAL (3 h): 2 g; LIVER (3 h): 10.3 g; A/G (3 h): 1.6; ALP (3 h): 1026.6 IU/L; ALT (3 h): 45.4 IU/L; AST (3 h): 81 IU/L; BUN (3 h): 12.4 mg/dL; CRE (3 h): 0.3 mg/dL; Ca (3 h): 10.8 mg/dL; Cl (3 h): 104 meq/L; DBIL (3 h): 0.074 mg/dL; GLC (3 h): 197 mg/dL; IP (3 h): 9 mg/dL; K (3 h): 4.1 meq/L; LDH (3 h): 163.8 IU/L; Na (3 h): 141.8 meq/L; PL (3 h): 152.8 mg/dL; RALB (3 h): 3.5 g/dL; TBIL (3 h): 0.1 mg/dL; TC (3 h): 82.4 mg/dL; TG (3 h): 73.8 mg/dL; TP (3 h): 5.7 g/dL; gamma-GTP (3 h): 1 IU/L; TERMINAL_BW (6 h): 222.9 g; APTT (6 h): 18.9 s; Bas (6 h): 0.6%; Eos (6 h): 0.8%; Fbg (6 h): 223.6 mg/dL; Hb (6 h): 13.4 g/dL; Ht (6 h): 40.2%; Lym (6 h): 78.4%; MCH (6 h): 21.3 pg; MCHC (6 h): 33.4%; MCV (6 h): 63.7 fL; Mono (6 h): 3.4%; Neu (6 h): 16.8%; PT (6 h): 12.3 s; Plat (6 h): 123.6 x10_4/uL; RBC (6 h): 631.2 x10_4/ul; Ret (6 h): 7.2%; WBC (6 h): 108.8 x10_2/uL; KIDNEY_L (6 h): 1 g; KIDNEY_R (6 h): 1 g; KIDNEY_TOTAL (6 h): 1.9 g; LIVER (6 h): 10 g; A/G (6 h): 1.7; ALP (6 h): 948.8 IU/L; ALT (6 h): 38.2 IU/L; AST (6 h): 72.8 IU/L; BUN (6 h): 11.8 mg/dL; CRE (6 h): 0.4 mg/dL; Ca (6 h): 10.6 mg/dL; Cl (6 h): 104 meq/L; DBIL (6 h): 0.074 mg/dL; GLC (6 h): 193.6 mg/dL; IP (6 h): 8.6 mg/dL; K (6 h): 4.1 meq/L; LDH (6 h): 159 IU/L; Na (6 h): 140.6 meq/L; PL (6 h): 134.8 mg/dL; RALB (6 h): 3.5 g/dL; TBIL (6 h): 0.2 mg/dL; TC (6 h): 75 mg/dL; TG (6 h): 64.4 mg/dL; TP (6 h): 5.6 g/dL; gamma-GTP (6 h): 0.8 IU/L; TERMINAL_BW (9 h): 223.4 g; APTT (9 h): 18.6 s; Bas (9 h): 0.4%; Eos (9 h): 0.8%; Fbg (9 h): 220.2 mg/dL; Hb (9 h): 13.2 g/dL; Ht (9 h): 39.2%; Lym (9 h): 71.2%; MCH (9 h): 21.6 pg; MCHC (9 h): 33.7%; MCV (9 h): 64.1 fL; Mono (9 h): 3.4%; Neu (9 h): 24%; PT (9 h): 12.2 s; Plat (9 h): 120.6 x10_4/uL; RBC (9 h): 611.6 x10_4/ul; Ret (9 h): 6.8%; WBC (9 h): 110.6 x10_2/uL; KIDNEY_L (9 h): 1 g; KIDNEY_R (9 h): 1 g; KIDNEY_TOTAL (9 h): 2 g; LIVER (9 h): 9.1 g; A/G (9 h): 1.6; ALP (9 h): 857.8 IU/L; ALT (9 h): 41.2 IU/L; AST (9 h): 69.8 IU/L; BUN (9 h): 10.8 mg/dL; CRE (9 h): 0.3 mg/dL; Ca (9 h): 10.5 mg/dL; Cl (9 h): 103.2 meq/L; DBIL (9 h): 0.064 mg/dL; GLC (9 h): 190 mg/dL; IP (9 h): 9.7 mg/dL; K (9 h): 4.1 meq/L; LDH (9 h): 168.6 IU/L; Na (9 h): 141.2 meq/L; PL (9 h): 125.4 mg/dL; RALB (9 h): 3.2 g/dL; TBIL (9 h): 0.1 mg/dL; TC (9 h): 66.2 mg/dL; TG (9 h): 54.4 mg/dL; TP (9 h): 5.3 g/dL; gamma-GTP (9 h): 1 IU/L; TERMINAL_BW (24 h): 235.4 g; APTT (24 h): 20 s; Bas (24 h): 0.2%; Eos (24 h): 0.2%; Fbg (24 h): 261.6 mg/dL; Hb (24 h): 12.8 g/dL; Ht (24 h): 39%; Lym (24 h): 60.2%; MCH (24 h): 20.8 pg; MCHC (24 h): 32.9%; MCV (24 h): 63.5 fL; Mono (24 h): 3.8%; Neu (24 h): 33.8%; PT (24 h): 12.1 s; Plat (24 h): 122.4 x10_4/uL; RBC (24 h): 614.2 x10_4/ul; Ret (24 h): 6.8%; WBC (24 h): 136.9 x10_2/uL; KIDNEY_L (24 h): 1 g; KIDNEY_R (24 h): 1 g; KIDNEY_TOTAL (24 h): 2.1 g; LIVER (24 h): 11.4 g; A/G (24 h): 1.5; ALP (24 h): 892.2 IU/L; ALT (24 h): 39.8 IU/L; AST (24 h): 67.6 IU/L; BUN (24 h): 13.2 mg/dL; CRE (24 h): 0.4 mg/dL; Ca (24 h): 10.5 mg/dL; Cl (24 h): 104.8 meq/L; DBIL (24 h): 0.078 mg/dL; GLC (24 h): 203.8 mg/dL; IP (24 h): 7.8 mg/dL; K (24 h): 4.2 meq/L; LDH (24 h): 207.8 IU/L; Na (24 h): 141.8 meq/L; PL (24 h): 133.2 mg/dL; RALB (24 h): 3.1 g/dL; TBIL (24 h): 0.1 mg/dL; TC (24 h): 68.2 mg/dL; TG (24 h): 74.4 mg/dL; TP (24 h): 5.1 g/dL; gamma-GTP (24 h): 0.8 IU/L
